Results taken from patent US12516039B2, “N-linked isoquinoline amides as LRRK2 inhibitors, pharmaceutical compositions, and uses thereof” (Merck Sharp & Dohme LLC, priority 2020, dated 2026).

The compounds below were run against T1, GST-tagged truncated human mutant G2019S LRRK2 (Homo sapiens, UniProt Q5S007, G2019S) (assay: LRRK2 G2019S Km ATP LanthaScreen assay). Conditions: 134 μM ATP (Km ATP), LRRKtide substrate, mean of several tests, read-out: LRRK2 pIC50 (converted).
T1 construct: GST-tagged truncated human mutant G2019S LRRK2; purchased Life Technologies Corporation (Carlsbad, CA)
T1 sequence (Q5S007 970-2527 G2019S limits assumed): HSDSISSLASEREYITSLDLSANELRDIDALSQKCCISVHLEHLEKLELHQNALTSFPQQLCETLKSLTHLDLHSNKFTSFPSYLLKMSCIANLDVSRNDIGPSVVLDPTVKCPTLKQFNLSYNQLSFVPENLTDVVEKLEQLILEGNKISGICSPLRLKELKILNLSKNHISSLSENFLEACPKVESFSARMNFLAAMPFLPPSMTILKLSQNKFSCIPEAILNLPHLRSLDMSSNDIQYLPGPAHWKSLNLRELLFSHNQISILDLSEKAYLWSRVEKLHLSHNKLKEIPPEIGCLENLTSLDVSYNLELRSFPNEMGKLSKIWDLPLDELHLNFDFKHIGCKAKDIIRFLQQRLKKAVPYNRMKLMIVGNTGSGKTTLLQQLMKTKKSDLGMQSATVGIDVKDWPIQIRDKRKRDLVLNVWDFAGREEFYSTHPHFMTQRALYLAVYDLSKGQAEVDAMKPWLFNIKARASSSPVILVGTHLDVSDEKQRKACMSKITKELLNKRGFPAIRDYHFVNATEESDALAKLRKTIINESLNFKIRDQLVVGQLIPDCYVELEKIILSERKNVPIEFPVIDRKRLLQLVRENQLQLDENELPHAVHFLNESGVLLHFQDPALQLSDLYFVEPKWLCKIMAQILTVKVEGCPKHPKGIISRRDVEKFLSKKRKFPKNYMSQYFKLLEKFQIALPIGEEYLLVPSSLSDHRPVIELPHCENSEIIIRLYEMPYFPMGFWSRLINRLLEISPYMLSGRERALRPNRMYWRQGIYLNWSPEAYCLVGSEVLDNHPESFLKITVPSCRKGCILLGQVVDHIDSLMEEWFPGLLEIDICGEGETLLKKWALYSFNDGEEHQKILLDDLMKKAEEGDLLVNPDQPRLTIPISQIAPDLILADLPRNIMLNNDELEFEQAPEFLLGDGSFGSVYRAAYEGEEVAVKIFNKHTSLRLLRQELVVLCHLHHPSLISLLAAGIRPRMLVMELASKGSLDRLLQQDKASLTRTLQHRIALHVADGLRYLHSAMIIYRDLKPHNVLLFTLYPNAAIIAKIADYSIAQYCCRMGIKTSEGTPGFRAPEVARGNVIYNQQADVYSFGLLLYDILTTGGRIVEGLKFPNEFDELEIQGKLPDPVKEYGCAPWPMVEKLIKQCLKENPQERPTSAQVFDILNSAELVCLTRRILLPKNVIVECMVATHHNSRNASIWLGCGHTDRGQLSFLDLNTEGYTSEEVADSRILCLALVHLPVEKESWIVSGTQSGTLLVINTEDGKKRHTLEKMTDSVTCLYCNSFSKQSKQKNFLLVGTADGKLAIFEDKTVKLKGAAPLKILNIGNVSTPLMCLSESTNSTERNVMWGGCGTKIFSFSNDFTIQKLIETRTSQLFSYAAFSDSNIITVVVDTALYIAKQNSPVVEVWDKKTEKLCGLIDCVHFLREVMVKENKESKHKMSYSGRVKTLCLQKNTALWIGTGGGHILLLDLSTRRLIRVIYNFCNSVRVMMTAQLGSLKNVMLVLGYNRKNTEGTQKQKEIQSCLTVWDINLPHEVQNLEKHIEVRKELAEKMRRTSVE
Type: biochemical
In short: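 GST-tagged truncated human LRRK2 G2019S (1.25 nM enzyme solution) was preincubated 15 min with compound, then reacted 90 min at ambient temperature with fluorescein-LRRKtide (400 nM solution) and 134 μM ATP (Km) in Tris pH 8.5. EDTA stop; Tb anti-phospho-LRRKtide TR-FRET (520/495 ratio). IC50 from 4-parameter fits, mean of several runs.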
CC1(C)CC2(CCO1)CC2C(=O)Nc1cc2cc(N3CCN(C4(C)COCC4O)CC3)c(Cl)cc2cn1 (single isomer, unassigned) [Ex-7.4] gave an IC50 of 0.776 nM. N#CC1CCN(c2cc3cc(NC(=O)C4CC4c4cncnc4)ncc3cc2Cl)CC1 (single isomer, unassigned) [Ex-5.18] showed an IC50 of 67.6 nM. Cn1ncc(C2CC2C(=O)Nc2cc3cc(N4CCN(C5(C)CCOC5)CC4)c(Cl)cc3cn2)c1C(F)(F)F (single isomer, unassigned) [Ex-10.26, (1R,2R or 1S,2S)-N-[7-chloro-6-[4-((R or S)-3-methyltetrahydrofuran-3-yl)piperazin-4-ium-1-yl]-3-isoquinolyl]-2-[1-methyl-5-(trifluoromethyl)pyrazol-4-yl]cyclopropanecarboxamide] was tested, and the IC50 was 525 nM. CC1(O)CCN(c2cc3cc(NC(=O)C4CC4)ncc3cc2Cl)CC1 [Ex-4.2] gave an IC50 of 10.5 nM. CCC1C(C(=O)Nc2cc3cc(N4CCN(C5(C)COCC5F)CC4)c(Cl)cc3cn2)C1c1ccn(C)n1 (single isomer, unassigned) [Ex-10.51, (1R,2R,3R, 1R,2S,3R, or 1S,2R,3S, or 1S,2S,3S)-N-[7-chloro-6-[4-((3R,4R or 3S,4S)-4-fluoro-3-methyl-tetrahydrofuran-3-yl)piperazin-1-yl]-3-isoquinolyl]-2-ethyl-3-(1-methylpyrazol-3-yl)cyclopropanecarboxamide] showed an IC50 of 0.0813 nM. O=C(Nc1cc2cc(N3CCN(C4COCC4O)CC3)c(Cl)cc2cn1)C1CC1 (single isomer, unassigned) [Ex-1.3, (3R,4R or 3S,4S)-N-(7-chloro-6-(4-(4-hydroxytetrahydrofuran-3-yl)piperazin-1-yl)isoquinolin-3-yl)cyclopropanecarboxamide] gave an IC50 of 1.95 nM. For Cn1ncc(C2CC2C(=O)Nc2cc3cc(N4CCN(C5(C)COCC5O)CC4)c(Cl)cc3cn2)n1 (single isomer, unassigned) [Ex-16.2, (1S,2R or 1S,2S)-N-(N-(7-chloro-6-(4-(4-hydroxy-3-methyltetrahydrofuran-3-yl)piperazin-1-yl)isoquinolin-3-yl)-2-(2-methyl-2H-1,2,3-triazol-4-yl)cyclopropane-1-carboxamide], the IC50 was 0.0813 nM.
